ChEMBL document CHEMBL1201862, “PubChem BioAssay data set” (2004)
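Briefly, cells in 96-well plates were exposed to five compound concentrations for 48 h, and endpoints were estimated by linear interpolation. Abbreviation: GI50, concentration required for 50% inhibition of growth.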 Active and inactive are the calls of the source. No stated cut-off is given here; in the data, active = GI50 up to about 1.1 µM and inactive = higher.

Key:
Test in all cases: inhibition of tumour cell growth, NCI panel, 48 h
OVCAR-5 = test system: OVCAR-5
MOLT-4 = test system: MOLT-4
A549 = test system: A549
SK-MEL-5 = test system: SK-MEL-5
CCRF-CEM = test system: CCRF-CEM
HCC 2998 = test system: HCC 2998
TK-10 = test system: TK-10
SF-539 = test system: SF-539
SNB-19 = test system: SNB-19
HT-29 = test system: HT-29
SF-295 = test system: SF-295
SNB-75 = test system: SNB-75
UACC-62 = test system: UACC-62
OVCAR-4 = test system: OVCAR-4
786-0 = test system: 786-0
K562 = test system: K562
A498 = test system: A498
HL-60 = test system: HL-60

| SMILES | GI50 (OVCAR-5) | GI50 (MOLT-4) | GI50 (A549) | GI50 (SK-MEL-5) | GI50 (CCRF-CEM) | GI50 (HCC 2998) | GI50 (TK-10) | GI50 (SF-539) | GI50 (SNB-19) | GI50 (HT-29) | GI50 (SF-295) | GI50 (SNB-75) | GI50 (UACC-62) | GI50 (OVCAR-4) | GI50 (786-0) | GI50 (K562) | GI50 (A498) | GI50 (HL-60) |
| --- | --- | --- | --- | --- | --- | --- | --- | --- | --- | --- | --- | --- | --- | --- | --- | --- | --- | --- |
| O=C1Cc2ccccc2N1/N=C\c1ccc(O)cc1 | > 100 µM (inactive) | 13.4 µM (inactive) | 64.9 µM (inactive) | 44.1 µM (inactive) | 11.5 µM (inactive) | > 100 µM (inactive) | > 100 µM (inactive) | 95.7 µM (inactive) | > 100 µM (inactive) | > 100 µM (inactive) | 77.4 µM (inactive) | 18.1 µM (inactive) | > 100 µM (inactive) | > 100 µM (inactive) | > 100 µM (inactive) | 61.4 µM (inactive) | > 100 µM (inactive) | – |
| COC(=O)C(C)Oc1ccc(O)cc1 (centres undefined) | > 100 µM (inactive) | – | 63 µM (inactive) | > 100 µM (inactive) | > 100 µM (inactive) | > 100 µM (inactive) | > 100 µM (inactive) | > 100 µM (inactive) | > 100 µM (inactive) | > 100 µM (inactive) | > 100 µM (inactive) | > 100 µM (inactive) | > 100 µM (inactive) | > 100 µM (inactive) | > 100 µM (inactive) | > 100 µM (inactive) | > 100 µM (inactive) | > 100 µM (inactive) |
| CC(C)=Cc1cc(C(=O)Nc2ccc(Cl)c(Cl)c2)nc(N)n1 | > 100 µM (inactive) | > 100 µM (inactive) | > 100 µM (inactive) | > 100 µM (inactive) | – | > 100 µM (inactive) | > 100 µM (inactive) | > 100 µM (inactive) | > 100 µM (inactive) | > 100 µM (inactive) | > 100 µM (inactive) | > 100 µM (inactive) | > 100 µM (inactive) | > 100 µM (inactive) | > 100 µM (inactive) | > 100 µM (inactive) | > 100 µM (inactive) | > 100 µM (inactive) |
| O=C(OCc1ccccc1)N1N=NC2C3CC(OCc4ccccc4)(OCc4ccccc4)C(O3)C21 (centres undefined) | 26 µM (inactive) | 5.5 µM (inactive) | 17.3 µM (inactive) | 9.66 µM (inactive) | 21.3 µM (inactive) | 27 µM (inactive) | – | 32.7 µM (inactive) | – | 26 µM (inactive) | 22.1 µM (inactive) | 24.3 µM (inactive) | 17.1 µM (inactive) | 22.2 µM (inactive) | 29.1 µM (inactive) | 11 µM (inactive) | 41.7 µM (inactive) | 7.59 µM (inactive) |
| COc1ccc(OC)c(N2CC(N)C2=O)c1 (centres undefined) | – | > 100 µM (inactive) | > 100 µM (inactive) | > 100 µM (inactive) | > 100 µM (inactive) | > 100 µM (inactive) | > 100 µM (inactive) | > 100 µM (inactive) | > 100 µM (inactive) | > 100 µM (inactive) | > 100 µM (inactive) | 86.7 µM (inactive) | > 100 µM (inactive) | > 100 µM (inactive) | > 100 µM (inactive) | > 100 µM (inactive) | > 100 µM (inactive) | > 100 µM (inactive) |
| O=[PH](O)c1ccccn1 | > 100 µM (inactive) | > 100 µM (inactive) | > 100 µM (inactive) | > 100 µM (inactive) | > 100 µM (inactive) | > 100 µM (inactive) | > 100 µM (inactive) | > 100 µM (inactive) | > 100 µM (inactive) | > 100 µM (inactive) | > 100 µM (inactive) | > 100 µM (inactive) | > 100 µM (inactive) | > 100 µM (inactive) | > 100 µM (inactive) | > 100 µM (inactive) | > 100 µM (inactive) | > 100 µM (inactive) |
| C#CCN(Cc1ccc2nc(-c3ccccc3)c(Cl)nc2c1)c1cc(OC)c(OC)c(OC)c1 | > 100 µM (inactive) | 83.6 µM (inactive) | 86.9 µM (inactive) | 30.3 µM (inactive) | 37.2 µM (inactive) | > 100 µM (inactive) | > 100 µM (inactive) | > 100 µM (inactive) | > 100 µM (inactive) | > 100 µM (inactive) | > 100 µM (inactive) | > 100 µM (inactive) | > 100 µM (inactive) | > 100 µM (inactive) | > 100 µM (inactive) | 20.1 µM (inactive) | > 100 µM (inactive) | 57.9 µM (inactive) |
| CNc1nc(N)cc(O)n1 | > 100 µM (inactive) | > 100 µM (inactive) | > 100 µM (inactive) | > 100 µM (inactive) | > 100 µM (inactive) | > 100 µM (inactive) | > 100 µM (inactive) | – | > 100 µM (inactive) | > 100 µM (inactive) | > 100 µM (inactive) | > 100 µM (inactive) | > 100 µM (inactive) | > 100 µM (inactive) | > 100 µM (inactive) | > 100 µM (inactive) | > 100 µM (inactive) | > 100 µM (inactive) |
| CN(C)CC(/C(Cc1ccccc1)=N\NC(=O)c1ccncc1)c1ccccc1 (centres undefined) | 83.8 µM (inactive) | – | 30.3 µM (inactive) | 19 µM (inactive) | 17.2 µM (inactive) | 39.1 µM (inactive) | 34.2 µM (inactive) | 43.7 µM (inactive) | 39 µM (inactive) | 41 µM (inactive) | 17.4 µM (inactive) | 36.1 µM (inactive) | 31 µM (inactive) | 36.7 µM (inactive) | 30 µM (inactive) | 31.2 µM (inactive) | – | 4.17 µM (inactive) |
| COc1c(Br)cc(Br)c(OC)c1-c1[nH]c(Br)c(Br)c1Br | 14.3 µM (inactive) | 4.53 µM (inactive) | 5.04 µM (inactive) | 6.55 µM (inactive) | 4.34 µM (inactive) | 6.76 µM (inactive) | 11.4 µM (inactive) | 9.98 µM (inactive) | 13.1 µM (inactive) | 4.17 µM (inactive) | 4.63 µM (inactive) | 4.45 µM (inactive) | 6.98 µM (inactive) | 4.28 µM (inactive) | 10.7 µM (inactive) | 4.01 µM (inactive) | 12.1 µM (inactive) | 6.76 µM (inactive) |
| COc1cc([C@@H]2c3cc4c(cc3[C@@H](OC(=O)c3ccccc3)C3COC(=O)[C@@H]32)OCO4)cc(OC)c1O (some centres undefined) | 68.9 µM (inactive) | 0.0413 µM (active) | 0.0132 µM (active) | < 0.01 µM (active) | 0.0304 µM (active) | 0.0345 µM (active) | 38.9 µM (inactive) | < 0.01 µM (active) | – | < 0.01 µM (active) | < 0.01 µM (active) | < 0.01 µM (active) | < 0.01 µM (active) | 25.9 µM (inactive) | 0.0254 µM (active) | < 0.01 µM (active) | – | < 0.01 µM (active) |
| Cc1ccc2nc(NC(=O)C(=O)C(C#N)c3ccc(Cl)cc3)sc2c1 (centres undefined) | > 50 µM (inactive) | – | > 50 µM (inactive) | – | – | > 50 µM (inactive) | > 50 µM (inactive) | > 50 µM (inactive) | > 50 µM (inactive) | > 50 µM (inactive) | > 50 µM (inactive) | > 50 µM (inactive) | > 50 µM (inactive) | > 50 µM (inactive) | > 50 µM (inactive) | – | – | – |
